Measurements as given in the supplement of paper PMC10307832.

Tests used:
Experiment in all cases: relative viability (nuclei count vs DMSO), 5 days (fraction); higher = more cells survive
Trametinib + OSI-027 = compound: CC(=O)Nc1cccc(-n2c(=O)n(C3CC3)c(=O)c3c(Nc4ccc(I)cc4F)n(C)c(=O)c(C)c32)c1 [Trametinib] + COc1cccc2cc(-c3nc([C@H]4CC[C@H](C(=O)O)CC4)n4ncnc(N)c34)[nH]c12 [OSI-027] (partner 0.5 µM)
Procedure, shortened: (§1)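 Nuclei were stained with Hoechst during a one-step fixation (final 0.05% Triton X-100, 1% formaldehyde, 1 ug/ml Hoechst) carried out 5 days after dosing, then counted on 4× images. The cells, lung cancer lines in 1536-well plates, had been dosed by pin tool the day after seeding with one drug alone or a fixed anchor-drug dose plus five library-drug doses (not always all listed) in √10 steps. Relative viability is the nuclei count in treated wells divided by that in vehicle wells, and each value is the median of duplicate plates.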

Trametinib + AZD7762 = compound: CC(=O)Nc1cccc(-n2c(=O)n(C3CC3)c(=O)c3c(Nc4ccc(I)cc4F)n(C)c(=O)c(C)c32)c1 [Trametinib] + NC(=O)Nc1cc(-c2cccc(F)c2)sc1C(=O)N[C@H]1CCCNC1 [AZD7762] (partner 0.2 µM)
Procedure, shortened: as §1

[1] = compound: CN1C=C(C2=CC=CC=C21)/C=C\3/C4=C(C=CC=N4)NC3=O + N=C(N)NC(=N)NCCc1ccccc1 [Phenformin] (partner 250 µM)
Procedure, shortened: as §1

| Cell Line | relative viability (Trametinib + OSI-027; first compound 0.0025 µM) | relative viability (Trametinib + OSI-027; first compound 0.007906 µM) | relative viability (Trametinib + OSI-027; first compound 0.025 µM) | relative viability (Trametinib + OSI-027; first compound 0.07906 µM) | relative viability (Trametinib + OSI-027; first compound 0.25 µM) | relative viability (Trametinib + AZD7762; first compound 0.0025 µM) | relative viability (Trametinib + AZD7762; first compound 0.007906 µM) | relative viability (Trametinib + AZD7762; first compound 0.025 µM) | relative viability (Trametinib + AZD7762; first compound 0.07906 µM) | relative viability (Trametinib + AZD7762; first compound 0.25 µM) | relative viability ([1]; first compound 0.02 µM) | relative viability ([1]; first compound 0.06325 µM) | relative viability ([1]; first compound 0.6325 µM) | relative viability ([1]; first compound 2 µM) | relative viability ([1]; first compound 0.2 µM) |
| --- | --- | --- | --- | --- | --- | --- | --- | --- | --- | --- | --- | --- | --- | --- | --- |
| NCI-H1944 | 0.359 | 0.309 | 0.318 | 0.279 | 0.23 | 0.511 | 0.39 | 0.344 | 0.366 | 0.311 | 0.21 | 0.181 | 0.181 | 0.167 | – |
| NCI-H1975 | 0.643 | 0.422 | 0.402 | 0.299 | 0.196 | 0.69 | 0.551 | 0.473 | 0.421 | 0.401 | 0.392 | 0.378 | 0.389 | 0.402 | 0.318 |
| NCI-H1993 | 0.545 | 0.606 | 0.624 | 0.657 | 0.699 | 0.694 | 0.716 | 0.395 | 0.504 | 0.472 | 0.544 | 0.432 | 0.55 | 0.509 | 0.431 |
| NCI-H2085 | 0.469 | 0.352 | 0.281 | 0.329 | 0.298 | 0.81 | 0.752 | 0.391 | 0.518 | 0.541 | 0.74 | 0.656 | 0.778 | 0.72 | 0.647 |
| NCI-H2087 | 0.323 | 0.275 | 0.139 | 0.137 | 0.101 | 1.26 | 1.38 | 0.633 | 0.313 | 0.324 | 0.488 | 0.431 | 0.453 | 0.369 | 0.387 |
| NCI-H2126 | 0.671 | 0.506 | 0.375 | 0.535 | 0.488 | 1.05 | 0.929 | 0.632 | 0.766 | 0.753 | 0.506 | 0.508 | 0.519 | 0.505 | 0.507 |
| NCI-H2170 | 0.754 | 0.659 | 0.392 | 0.613 | 0.616 | 0.878 | 0.84 | – | 0.748 | 0.556 | 0.354 | 0.366 | 0.405 | 0.4 | 0.327 |
| NCI-H2342 | 0.56 | 0.552 | – | 0.471 | 0.577 | 0.487 | 0.437 | 0.318 | 0.411 | 0.559 | 0.623 | 0.641 | 0.57 | 0.505 | 0.486 |
| NCI-H2347 | 0.394 | 0.216 | 0.185 | 0.226 | 0.167 | 0.642 | 0.41 | 0.296 | 0.29 | 0.296 | – | 0.374 | 0.318 | 0.46 | 0.297 |
| NCI-H2405 | 0.651 | 0.621 | 0.488 | 0.43 | 0.412 | 0.566 | 0.616 | 0.425 | – | 0.401 | 0.416 | 0.381 | 0.328 | 0.4 | 0.366 |
| NCI-H3122 | 0.555 | 0.352 | 0.211 | 0.169 | 0.159 | 0.947 | 0.642 | 0.292 | 0.361 | 0.308 | 0.347 | 0.333 | 0.375 | 0.355 | – |
| PC-3 [JPC-3] | 0.803 | 0.635 | 0.675 | 0.595 | 0.581 | 0.714 | 0.501 | 0.506 | – | 0.568 | 0.472 | 0.44 | 0.425 | 0.497 | 0.434 |
| PC-14 | 0.843 | 0.72 | 0.427 | 0.411 | 0.155 | 0.354 | 0.274 | 0.224 | 0.193 | 0.203 | 0.54 | 0.482 | 0.575 | 0.447 | – |
| RERF-LC-KJ | 0.493 | 0.471 | 0.414 | 0.459 | 0.372 | 0.853 | 0.909 | 0.674 | 0.807 | 0.814 | 0.434 | 0.415 | 0.474 | 0.482 | 0.444 |
| SW 900 | 0.629 | 0.539 | 0.424 | 0.428 | 0.167 | 0.666 | 0.518 | 0.575 | 0.47 | 0.268 | 0.468 | 0.434 | 0.589 | 0.809 | – |
